{"source": "paper PMC7356998", "about": "“Intrinsic Dissolution Rate Profiling of Poorly Water-Soluble Compounds in Biorelevant Dissolution Media” (Pharmaceutics, 2020)", "key": {"physchem": {"test": "physchem", "settings": "37 °C, pH 6.5, fassif, thermodynamic from solid", "experimental": "In these experiments, an excess amount of drug was added to triplicate Eppendorf tubes containing 1 mL of the respective dissolution medium. The tubes were vortexed and placed in a 37 °C incubator. Samples for HPLC analysis were taken 24, 48, and 72 h (triplicates at each time point) after initiation of the experiment to ensure that equilibrium had been reached. The samples were centrifuged at 37 °C, 23,000 g for 10 min (Heraeus Megafuge 8R, Thermo Scientific, Waltham, MA, USA). The supernatant was sampled, diluted 1:1 with acetonitrile, and kept refrigerated until HPLC analysis. […] The injection volumes were 20 μL."}, "[1]": {"test": "Intrinsic dissolution rate from miniaturized discs (DIDR), μDiss Profiler", "format": "physicochemical", "settings": "disc (D), 100 rpm, mean ± SD", "procedure": "Dissolution experiments were carried out in a small-scale dissolution apparatus using in situ fiber optic probes to measure the amount of drug dissolved over time by UV absorbance (μDiss Profiler, Pion Inc., Billerica, MA, USA). Drug dissolution was carried out from suspensions (S) or discs (D) depending on the solubility of the compound in the biorelevant media studied (Table 3). […] Standard curves were established by adding aliquots of DMSO stock solutions of the compounds to 3 mL of biorelevant medium, respectively. Dissolution media were prepared following the protocol provided by Biorelevant.com Ltd. and used within 48 h after their preparation. The media were incubated at 37 °C for at least one hour prior to use in the dissolution experiments. The hydrodynamic diameter of the micelles/vesicles formed in the biorelevant media were measured by DLS (Table 2). […] Stirring was turned off while measuring the UV absorbance for each aliquot and the standard curve was established based on six aliquots. […] Intrinsic dissolution rates will henceforth be denoted 'IDR' for both SIDR and DIDR values determined in this study (see Table 3 for details)."}}, "data": [{"smiles": "C#C[C@]1(O)CC[C@H]2[C@@H]3CCc4cc(O)ccc4[C@H]3CC[C@@]21C", "note": "[Ethinylestradiol]", "values": [{"measurement": "solubility thermodynamic", "setting": "physchem", "result": "18.7 ± 1.3", "unit": "µg/mL"}, {"measurement": "IDRFaSSIF-V1", "setting": "[1]; FaSSIF-V1 pH 6.5, 37 °C", "result": "3.2 ±0.1", "unit": "μg/min/cm^2"}, {"measurement": "IDRFaSSIF-V2", "setting": "[1]; FaSSIF-V2 pH 6.5, 37 °C", "result": "6.6 ± 0.8", "unit": "μg/min/cm^2"}]}]}
